Experimental data published in US20090076092A1, “METHOD FOR DISRUPTING REPRODUCTIVE PERFORMANCE OF ARTHROPODS” (priority 2006, published 2009).

Key:
cotton bollworm = experiment: Preliminary dose-response curve on cotton bollworm; assay type: in vivo, Helicoverpa armigera; settings: cotton bollworm adults; preliminary dose-response curve at 10, 25, 50, 80 and 100 ppm
From the text: (§1) The sub-lethal concentrations or doses used in the various tests for the specific pest species and populations tested in the context of the present invention were estimated from multiple-rate, dose-finding tests to determine the control rates and activity break rates. […] Therefore, depending on the target pest species, either the LC50 or a suitable concentration between LC50 and LC20 was selected as the sub-lethal dose. The specific procedures used to select the respective doses are described in each Test.
(§2) Sub-lethal rates of Compound 1 on cotton bollworm were estimated based on a preliminary dose-response curve using rates of 10, 25, 50, 80 and 100 ppm. […] Three treatments consisted of test solutions containing Compound 1 at 10, 20 and 30 ppm as well as a control sprayed with water without test compound.

[1] = system: cotton bollworm (Helicoverpa armigera Hübner); experiment: Test H: eggs laid and hatched by treated cotton bollworm adults; assay type: in vivo; settings: for No. of eggs hatched / No. of eggs laid: total; for No. of eggs hatched: counted daily for 10 DAT; for No. of eggs laid: counted daily for about 10 days
From the text: For evaluating the reproductive performance effects on cotton bollworm (Helicoverpa armigera Hübner), each test unit consisted of one pair of adult (female and male) Helicoverpa armigera moths. To obtain the adult moths, male and female pupae of approximately the same age (±1 day) were placed in separate containers until adults emerged. After emergence, adult moths of about the same age (±1 day) were selected for testing. Ten adult moths of the same sex were placed in a cage containing a potted cotton plant in a […] container covered with sleeve of fine-mesh polyester material. Then the cages were sprayed over the top with designated treatments of the test compounds using a CO2 sprayer fitted with a flat fan nozzle, calibrated to deliver about 200 mL (500 L/ha) of spray at a spray pressure of 207 kPa. The spray nozzle was placed 60 cm above the top of the cages.
as §2
The treated adult moths were transferred individually into a clean container made of a clear plastic cup covered with cloth and supplied with a cotton wick soaked in 10% sucrose solution as adult diet source. Each treatment used 10 adult females and 10 adult males (i.e. 10 replicates per treatment). One day after treatment, a pair of treated adults (male and female) were placed together in a cage made of a 300 mL clear plastic cup with screened cloth cover and containing a source of adult diet, allowing the moths to copulate. Each pair of moths was transferred to a new cup daily. The number of eggs laid was counted daily for about 10 days (which is the period during which female moths typically produce viable eggs) and totaled. To evaluate the viability of eggs, the copulation cages containing eggs were stored in a growth chamber at 24-27° C. with 14 hours of light per day and 70% relative humidity.

[2] = system: green peach aphid (Myzus persicae Sulzer); experiment: Test B: nymph production by green peach aphid after 24 hours exposure on treated radish plants; assay type: in vivo; settings: for Living (%) / On plant (%): 1 DAT; for Living (%): all aphids alive 24 h after treatment; for On plant (%): all aphids on the treated plant; for No. of nymphs (mean ± SE): per adult
Description: For evaluating reproductive performance effects on green peach aphid (Myzus persicae Sulzer), each test unit consisted of a radish plant grown in a 6 cm×6 cm square pot infested with a mixed population (nymphs and adults) of green peach aphids from a laboratory-reared culture. Each plant was infested with about 100 aphids. Test solutions were prepared and sprayed on the test plants (2 plants per treatment) as described for TEST A. Treatments included Compound 1 at 100 and 500 ppm, Compound 2 at 4 and 6 ppm, and a control without test compound.
Aphids were kept on the treated plants for 24 hours, and then only adult aphids staying on the treated plant were transferred to untreated radish plants grown singly in a 6 cm×6 cm square pots. One test unit or one replicate consisted of a single adult aphid on a radish plant in a pot. The number of nymphs in each replicate was counted 4 and 6 days after treatment. At the higher concentration of each test compound a total of 45 replicates were used, and at the lower concentration of each test compound a total of 30 replicates were used. In addition, prior to transferring aphids singly to the untreated radish plants one day after treatment (1 DAT), the total number of aphids living and those remaining on the treated plant were counted.
The results are listed in Table B. Square-root transformation was done on the number of nymphs produced per adult (female) aphid, and the data were analyzed using analysis of variance (ANOVA) and Fisher's Least Significant Difference (LSD) tests for separation of means.

diamondback moth = experiment: Previous laboratory studies of diamondback moth mortality; assay type: in vivo; settings: Plutella xylostella, read-out: mortality of the diamondback moth (LC20)
From the text: as §1
In addition, a control without test compound was included.

[3] = system: Colorado potato beetle, (Leptinotarsa decemlineata Say); experiment: Test E: sub-lethal treatments on adult Colorado potato beetles; assay type: in vivo; settings: for Total number of eggs: eggs collected daily for 20 days; for Mean number of viable larvae: larvae that developed to the pupal stage
Description: For evaluating the reproductive performance effects on Colorado potato beetle, (Leptinotarsa decemlineata Say), a colony of potato beetles was cultured in the laboratory on potato plants. The pupae were provided soil material to facilitate pupation. On emergence from the soil, the adult beetles were separated into different cages to avoid initial contact between the male and female beetles. Immediately afterwards, the sex of each adult beetle was determined, and each individual insect was placed in a Petri dish and fed with pieces of excised potato leaves, before being placed in a whole plant-containing test unit for treatment with a test compound solution. Each treatment consisted of twenty adult beetles of the same age (10 males and 10 females), and a pair consisting of a male and female was considered to be a replicate; thus there were 10 replicates per treatment.
Test solutions were prepared by diluting the test compound with acetone to provide the selected sub-lethal concentrations. Treatments included Compound 1 at 6.25 and 25 ppm as well as a control without test compound.
A 15 day-old potato plant with 2 to 3 leaves in a round peat pot was infested with 10 pairs of adult beetles, and the test solution was applied at a spray pressure of 310 kPa using a moving boom tunnel sprayer equipped with one Teejet nozzle, model 8003-EVS and calibrated at speed of 1 m/s and 345 kPa to deliver about 280 L/ha. A piece of filter paper was wrapped around the plant and covered the soil, and the spray nozzle was placed 40 cm above the top of potted plant unit so that the upper surface of the leaves was the only part of the plant contacted with the spray mixture.
After 24 h, one treated male and one treated female were transferred onto a covered container containing a potato plant to allow mating to occur. The test units were held in a growth chamber provided with 16 hours of light per day, 70% relative humidity and 20° C. Daily observations were made to record oviposition data. The eggs deposited by the females were collected daily and counted for 20 days. The collected eggs were then placed in a Petri dish lined with moistened paper filter to prevent dehydration, and maintained in an incubator at 20-24° C. with 16 hours of light per day, 70% relative humidity. The number of hatched eggs and the number of viable larvae that developed to the pupal stage were also recorded. The study was discontinued after the remaining unhatched eggs succumbed to fungal infections and high humidity.

CNC(=O)c1cc(Cl)cc(C)c1NC(=O)c1cc(Br)nn1-c1ncccc1Cl [Compound 1, 3-bromo-N-[4-chloro-2-methyl-6-[(methylamino)carbonyl]phenyl]-1-(3-chloro-2-pyridinyl)-1H-pyrazole-5-carboxamide]
LC20 (cotton bollworm): 18 ppm | LC50 (cotton bollworm): 33 ppm | number of eggs hatched as compared to controls ([1]; 10, 20 and 30 ppm): progressively substantially decrease the number of eggs hatched | number of eggs laid as compared to controls ([1]; 10, 20 and 30 ppm): did not consistently reduce the number of eggs laid | No. of eggs hatched ([1]; 10 ppm): 977 | No. of eggs laid ([1]; 10 ppm): 3412 | No. of eggs hatched ([1]; 20 ppm): 778 | No. of eggs laid ([1]; 20 ppm): 1180 | No. of eggs hatched ([1]; 30 ppm): 84 | No. of eggs laid ([1]; 30 ppm): 4920 | Living (%) ([2]; 100 ppm): 99.9% | On plant (%) ([2]; 100 ppm): 99.6% | No. of nymphs (mean ± SE) ([2]; 100 ppm, 4 DAT): 3.5 ± 0.3 b | No. of nymphs (mean ± SE) ([2]; 100 ppm, 6 DAT): 7.3 ± 0.4 a | Living (%) ([2]; 500 ppm): 99.6% | On plant (%) ([2]; 500 ppm): 99.9% | No. of nymphs (mean ± SE) ([2]; 500 ppm, 4 DAT): 4.6 ± 0.3 a | No. of nymphs (mean ± SE) ([2]; 500 ppm, 6 DAT): 8.1 ± 0.5 a | mortality at 10 ppm (diamondback moth): ~20% | fecundity and fertility data versus control ([3]; 6.25 and 25 ppm): not significantly different from the control | Mean number of hatched eggs ([3]; 6.25 ppm): 188 | Total number of eggs ([3]; 6.25 ppm): 271 | Mean number of viable larvae ([3]; 6.25 ppm): 95 | Mean number of hatched eggs ([3]; 25 ppm): 219 | Total number of eggs ([3]; 25 ppm): 287 | Mean number of viable larvae ([3]; 25 ppm): 117
